Experiments:
Human αvβ3 = biological target: T1, Human αvβ3 (Homo sapiens, UniProt P05106+P06756); assay: In vitro solid phase purified αvβ3 binding assay (vitronectin/αvβ3); conditions: vitronectin binding to immobilized αvβ3; read-out: αvβ3 IC50
T1 construct: purchased Chemicon International Inc., Temecula, Calif
Protocol: In Vitro Solid Phase Purified αvβ3 Binding Assay
The vitronectin/αvβ3 binding assay methods were derived from Mehta et al. (Biochem J. 1998, 330, 861). Human αvβ3 (Chemicon International Inc., Temecula, Calif.), at a concentration of 1 μg/ml dissolved in Tris buffer (20 mM Tris, 1 mM CaCl2, […], 10 μM MnCl2, 150 mM NaCl), was immobilized on Immulon 96 well plates (Dynex Technologies, Chantilly, Va.) overnight at 4° C. Plates were washed and treated with blocking buffer (3% BSA in Tris buffer) for 2 h at 37° C. Plates were then rinsed 2 times with Tris buffer containing 0.3% BSA and 0.2% Tween20 (polyoxyethylenesorbitan monolaurate). Five minutes prior to the addition of 5 nM vitronectin (Sigma, St. Louis, Mo.), synthesized compounds were added to wells in duplicate. Each plate included c-RGDfV as an internal control. Following a 3 hour incubation at 37° C., plates were washed 5 times in assay buffer. An anti-human vitronectin IgG rabbit polyclonal antibody (Calbiochem, San Diego, Calif.) was added (1:2000) and plates were incubated for 1 hour at room temperature. VectaStain ABC peroxidase kit reagents (Vector Laboratories, Burlingame, Calif.) employing a biotin labeled anti-rabbit IgG, were utilized for detection of bound antibody. Plates were read at 490 nm on a Molecular Devices (Sunnyvale, Calif.) microplate reader.

[1] = biological target: RGD-affinity purified GPIIb/IIIa (Homo sapiens, UniProt P05106+P08514); assay: In vitro solid phase purified GPIIb/IIIa binding assay (biotinylated fibrinogen); conditions: fibrinogen binding to immobilized GPIIb/IIIa; read-out: IIb/IIIa IC50
RGD-affinity purified GPIIb/IIIa, sequence (P08514 32-887 limits assumed): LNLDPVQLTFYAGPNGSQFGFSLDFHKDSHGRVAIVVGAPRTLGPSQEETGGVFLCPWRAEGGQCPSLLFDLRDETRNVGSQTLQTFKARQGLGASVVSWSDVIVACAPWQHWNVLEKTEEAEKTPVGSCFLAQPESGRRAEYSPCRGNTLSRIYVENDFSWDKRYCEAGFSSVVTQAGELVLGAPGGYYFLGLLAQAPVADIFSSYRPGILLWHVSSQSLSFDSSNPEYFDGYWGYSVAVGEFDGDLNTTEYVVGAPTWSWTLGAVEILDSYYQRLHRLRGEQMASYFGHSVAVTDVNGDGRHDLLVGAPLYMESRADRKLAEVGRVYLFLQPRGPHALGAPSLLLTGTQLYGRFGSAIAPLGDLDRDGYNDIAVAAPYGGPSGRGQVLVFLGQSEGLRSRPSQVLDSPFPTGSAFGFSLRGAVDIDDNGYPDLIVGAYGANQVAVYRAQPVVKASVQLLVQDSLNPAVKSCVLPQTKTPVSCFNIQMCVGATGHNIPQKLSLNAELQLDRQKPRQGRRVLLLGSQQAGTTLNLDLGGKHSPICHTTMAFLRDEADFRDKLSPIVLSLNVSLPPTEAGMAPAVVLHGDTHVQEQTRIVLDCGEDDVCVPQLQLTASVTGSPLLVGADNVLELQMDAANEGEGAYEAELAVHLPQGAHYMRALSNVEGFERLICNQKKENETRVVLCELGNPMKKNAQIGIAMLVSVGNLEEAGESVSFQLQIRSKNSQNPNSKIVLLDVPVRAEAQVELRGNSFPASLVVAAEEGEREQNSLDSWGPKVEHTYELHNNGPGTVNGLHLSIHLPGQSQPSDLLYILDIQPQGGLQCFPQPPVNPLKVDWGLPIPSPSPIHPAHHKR
RGD-affinity purified GPIIb/IIIa, sequence (P08514 891-1039 partner limits assumed): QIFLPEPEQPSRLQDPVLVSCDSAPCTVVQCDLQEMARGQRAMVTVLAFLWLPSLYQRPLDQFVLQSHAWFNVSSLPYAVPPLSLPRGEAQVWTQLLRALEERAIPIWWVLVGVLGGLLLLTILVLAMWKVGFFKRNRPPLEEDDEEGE
RGD-affinity purified GPIIb/IIIa, sequence (P05106 27-788): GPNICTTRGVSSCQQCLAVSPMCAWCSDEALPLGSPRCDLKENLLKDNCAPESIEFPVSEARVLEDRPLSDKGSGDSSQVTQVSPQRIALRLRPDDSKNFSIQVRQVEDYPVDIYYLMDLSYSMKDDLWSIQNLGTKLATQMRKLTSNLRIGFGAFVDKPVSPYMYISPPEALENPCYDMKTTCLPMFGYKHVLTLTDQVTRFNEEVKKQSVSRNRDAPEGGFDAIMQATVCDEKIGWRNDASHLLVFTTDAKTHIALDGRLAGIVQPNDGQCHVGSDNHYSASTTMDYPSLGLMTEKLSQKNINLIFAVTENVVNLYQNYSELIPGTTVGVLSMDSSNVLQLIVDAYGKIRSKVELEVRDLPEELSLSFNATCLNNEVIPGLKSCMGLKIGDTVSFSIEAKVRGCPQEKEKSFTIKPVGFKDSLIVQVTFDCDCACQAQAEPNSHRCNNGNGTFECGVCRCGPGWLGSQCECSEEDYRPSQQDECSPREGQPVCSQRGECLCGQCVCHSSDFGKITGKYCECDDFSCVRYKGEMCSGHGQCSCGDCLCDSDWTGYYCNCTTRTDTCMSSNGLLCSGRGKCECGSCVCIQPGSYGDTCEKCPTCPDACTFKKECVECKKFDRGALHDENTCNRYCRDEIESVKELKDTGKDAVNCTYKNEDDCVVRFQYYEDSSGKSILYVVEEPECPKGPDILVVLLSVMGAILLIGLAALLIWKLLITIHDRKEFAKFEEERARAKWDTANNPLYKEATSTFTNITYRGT
Protocol: In Vitro Solid Phase Purified GP IIB/IIIA Binding Assay
The plate was covered and incubated overnight at 4° C. The GPIIb/IIIa solution was discarded and 150 μl of 5% BSA was added and incubated at RT for 1-3 h. The plate was washed extensively with modified Tyrodes buffer. Biotinylated fibrinogen (25 μl/well) at 2× final concentration was added to the wells that contain the test compounds (25 μl/well). The plate was covered and incubated at RT for 2-4 h. Twenty minutes prior to incubation completion, one drop of Reagent A (VectaStain ABC Horse Radish Peroxidase kit, Vector Laboratories, Inc.) and one drop Reagent B were added with mixing to 5 mL modified Tyrodes buffer mix and let stand. The ligand solution was discarded and the plate washed (5×200 μl/well) with modified Tyrodes buffer. Vecta Stain HRP-Biotin-Avidin reagent (50 μl/well, as prepared above) was added and incubated at RT for 15 min. The Vecta Stain solution was discarded and the wells washed (5×200 μl/well) with modified Tyrodes buffer. Developing buffer (10 mL of 50 mM citrate/phosphate buffer @ pH 5.3, 6 mg o-phenylenediamine, 6 μl 30% H2O2; 50 μl/well) was added and incubated at RT for 3-5 min, and then 2 NH2SO4 (50 μl/well) was added. The absorbance was read at 490 nm.

T1 sequence (P06756 31-889 limits assumed): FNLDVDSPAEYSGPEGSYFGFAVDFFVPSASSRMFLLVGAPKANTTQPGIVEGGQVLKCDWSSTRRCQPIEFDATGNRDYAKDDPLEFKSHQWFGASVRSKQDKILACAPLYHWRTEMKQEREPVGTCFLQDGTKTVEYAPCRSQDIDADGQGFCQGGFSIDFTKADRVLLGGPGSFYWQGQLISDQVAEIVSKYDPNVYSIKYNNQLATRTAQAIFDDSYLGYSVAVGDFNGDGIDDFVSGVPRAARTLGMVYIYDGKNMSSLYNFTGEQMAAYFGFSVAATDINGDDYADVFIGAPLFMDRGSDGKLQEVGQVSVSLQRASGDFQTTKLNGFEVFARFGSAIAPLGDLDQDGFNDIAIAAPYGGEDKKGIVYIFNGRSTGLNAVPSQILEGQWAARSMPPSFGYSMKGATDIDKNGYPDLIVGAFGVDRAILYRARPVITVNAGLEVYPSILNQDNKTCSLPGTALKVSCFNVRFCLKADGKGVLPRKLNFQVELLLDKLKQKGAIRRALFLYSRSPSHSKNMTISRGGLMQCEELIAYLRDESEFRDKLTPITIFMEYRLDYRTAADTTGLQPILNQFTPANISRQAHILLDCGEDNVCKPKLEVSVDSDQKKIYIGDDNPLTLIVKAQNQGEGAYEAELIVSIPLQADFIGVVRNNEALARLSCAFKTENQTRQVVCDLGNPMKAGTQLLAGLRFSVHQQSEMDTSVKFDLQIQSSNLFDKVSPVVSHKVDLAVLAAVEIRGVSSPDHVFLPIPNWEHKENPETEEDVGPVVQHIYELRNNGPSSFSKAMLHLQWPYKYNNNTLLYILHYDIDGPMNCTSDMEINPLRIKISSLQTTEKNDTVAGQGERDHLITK
T1 sequence (P06756 891-1048 partner limits assumed): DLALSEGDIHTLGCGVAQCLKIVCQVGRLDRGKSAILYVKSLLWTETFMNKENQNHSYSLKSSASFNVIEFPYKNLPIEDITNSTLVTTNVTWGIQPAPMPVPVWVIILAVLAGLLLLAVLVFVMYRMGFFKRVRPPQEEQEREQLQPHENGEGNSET
T1 sequence (P05106 27-788): as the sequence (P05106 27-788) above

Row | IC50 (Human αvβ3) [nM] | IC50 [1] [nM] | SMILES
1 | > 500 | 13000 | O=C(O)CC(NC(=O)C1CCN(C(=O)CCCNC2=NCCN2)CC1)c1cccc(C(F)(F)F)c1 (stereo not drawn) [Compound 27]
2 | 8.2 | 1500 | O=C(N[C@@H](CNC(=O)C1CCN(C(=O)OCCNC2=NCCN2)CC1)C(=O)O)OCc1ccccc1 [Compound 28, 4-[[[(2S)-2-carboxy-2-[[(phenylmethoxy)carbonyl]amino]ethyl]amino]carbonyl]-, 2-[(4,5-dihydro-1H-imidazol-2-yl)amino]ethyl ester 1-piperidinecarboxylic acid]
3 | 34 | 210 | O=C(O)CC(NC(=O)C1CCN(C(=O)OCCNC2=NCCN2)CC1)c1ccc2c(c1)OCO2 (stereo not drawn) [Compound 29]
4 | 140 | 56000 | O=C(O)C[C@H](NC(=O)C1CCN(C(=O)CCCNc2ccccn2)CC1)c1cccnc1 [Compound 30]
5 | 29 | 4200 | O=C(O)CC(NC(=O)C1CCN(C(=O)OCCNC2=NCCN2)CC1)c1cccnc1 (stereo not drawn) [Compound 31]
6 | 120 | 3600 | O=C(O)CC(NC(=O)C1CCN(C(=O)CCCNC2=NCCN2)CC1)c1cccc(F)c1 (stereo not drawn) [Compound 32]
7 | 19 | 1800 | O=C(O)C[C@H](NC(=O)C1CCN(C(=O)CCCNC2=NCCN2)CC1)c1cccnc1 [Compound 33]
8 | 140 | 1600 | O=C(O)CC(NC(=O)C1CCN(C(=O)OCCNC2=NCCN2)CC1)c1cc(F)cc(F)c1 (stereo not drawn) [Compound 35]
9 | > 300 | 12000 | O=C(O)CC(NC(=O)C1CCN(C(=O)CCCNC2=NCCN2)CC1)c1cccc2ccccc12 (stereo not drawn) [Compound 36]
10 | 290 | 1700 | O=C(O)CC(NC(=O)C1CCN(C(=O)CCCNC2=NCCN2)CC1)c1ccc2ccccc2c1 (stereo not drawn) [Compound 37]
11 | > 300 | 3300 | O=C(O)CC(NC(=O)C1CCN(C(=O)CCCNC2=NCCN2)CC1)c1cc(F)cc(F)c1 (stereo not drawn) [Compound 38]
12 | 2.3 | 36 | O=C(O)C[C@H](NC(=O)C1CCN(C(=O)OCCNC2=NCCN2)CC1)c1cnc2ccccc2c1 [Compound 39, β-[[[1-[[2-[(4,5-dihydro-1H-imidazol-2-yl)amino]ethoxy]carbonyl]-4-piperidinyl]carbonyl]amino]-, (β^3S)-3-quinolinepropanoic acid]
13 | 12 | 1100 | O=C(O)C[C@H](NC(=O)C1CCN(C(=O)OCCNC2=NCCN2)CC1)c1cccnc1 [Compound 40]
14 | > 300 | 110 | Cc1cccnc1NCCCC(=O)N1CCC(C(=O)NC[C@H](NC(=O)OCc2ccccc2)C(=O)O)CC1 [Compound 41]
15 | 170 | 140 | COC(=O)[C@H](CNC(=O)C1CCN(C(=O)CCCNC2=NCCN2)CC1)NC(=O)OCc1ccccc1 [Compound 42]
16 | 230 | 1300 | O=C(O)CC(NC(=O)C1CCN(C(=O)CCCNC2=NCCN2)CC1)c1ccc(F)c(F)c1 (stereo not drawn) [Compound 43]
17 | 4 | 28 | CC(CCNC1=NCCN1)C(=O)N1CCC(C(=O)NC[C@H](NC(=O)OCc2ccccc2)C(=O)O)CC1 (stereo partly drawn) [Compound 47, 3-[[[1-[4-[(4,5-dihydro-1H-imidazol-2-yl)amino]-2-methyl-1-oxobutyl]-4-piperidinyl]carbonyl]amino]-N-[(phenylmethoxy)carbonyl]-L-alanine]

More lines, now with the values behind:

Row | SMILES | IC50 (Human αvβ3) [nM] | IC50 [1] [nM]
18 | O=C(O)C[C@H](NC(=O)C1CCN(C(=O)CCCNC2=NCCN2)CC1)c1ccc(Cl)nc1 [Compound 3, 6-chloro-β-[[[1-[4-[(4,5-dihydro-1H-imidazol-2-yl)amino]-1-oxobutyl]-4-piperidinyl]carbonyl]amino]-, (β^3S)-3-pyridinepropanoic acid] | 28 | 130
19 | C[C@H](CC(=O)O)NC(=O)C1CCN(C(=O)CCCNC2=NCCN2)CC1 [Compound 4, 3-[[[1-[4-[(4,5-dihydro-1H-imidazol-2-yl)amino]-1-oxobutyl]-4-piperidinyl]carbonyl]amino]-, (3R)-butanoic acid] | 150 | 1700
20 | CC(CNC1=NCCN1)C(=O)N1CCC(C(=O)N[C@@H](CC(=O)O)c2cnc3ccccc3c2)CC1 (stereo partly drawn) [Compound 5, β-[[[1-[3-[(4,5-dihydro-1H-imidazol-2-yl)amino]-2-methyl-1-oxopropyl]-4-piperidinyl]carbonyl]amino]-, (β^3S)-3-quinolinepropanoic acid] | 15 | 23
21 | O=C(O)CC(NC(=O)C1CCN(C(=O)CCc2nc3ccccc3[nH]2)CC1)c1cnc2ccccc2c1 (stereo not drawn) [Compound 7] | 490 | 7900
22 | O=C(N[C@@H](CNC(=O)C1CCN(C(=O)CCc2nc3ccccc3[nH]2)CC1)C(=O)O)OCc1ccccc1 [Compound 8] | 550 | 1100
23 | O=C(O)CC(NC(=O)C1CCN(C(=O)C2CCNCC2)CC1)c1cnc2ccccc2c1 (stereo not drawn) [Compound 9] | 30000 | 300
24 | O=C(N[C@@H](CNC(=O)C1CCN(C(=O)NCCCn2ccnc2)CC1)C(=O)O)OCc1ccccc1 [Compound 10] | > 50000 | 950
25 | O=C(N[C@@H](CNC(=O)C1CCN(C(=O)C2CCN(C3=NCCN3)CC2)CC1)C(=O)O)OCc1ccccc1 [Compound 11, 3-[[[1-[[1-(4,5-dihydro-1H-imidazol-2-yl)-4-piperidinyl]carbonyl]-4-piperidinyl]carbonyl]amino]-N-[(phenylmethoxy)carbonyl]-L-alanine] | 1300 | 2.6
26 | O=C(N[C@@H](CNC(=O)C1CCN(C(=O)CCNC2=NCCN2)CC1)C(=O)O)OCc1ccccc1 [Compound 12] | 20 | 14
27 | O=C(O)CC(NC(=O)C1CCN(C(=O)CCc2nc3ccccc3[nH]2)CC1)c1ccc2c(c1)OCCO2 (stereo not drawn) [Compound 13] | 10000 | 29000
28 | O=C(N[C@@H](CNC(=O)C1CCN(C(=O)[C@@H]2C=C[C@H](NC3=NCCN3)C2)CC1)C(=O)O)OCc1ccccc1 [Compound 14, 3-[[[1-[[(1S,4R)-4-[(4,5-dihydro-1H-imidazol-2-yl)amino]-2-cyclopenten-1-yl]carbonyl]-4-piperidinyl]carbonyl]amino]-N-[(phenylmethoxy)carbonyl]-L-alanine] | 50 | 9.2
29 | O=C(O)CC(NC(=O)C1CCN(C(=O)CCc2nc3ccccc3[nH]2)CC1)c1cccc2ccccc12 (stereo not drawn) [Compound 15] | > 5000 | 17000
30 | O=C(N[C@@H](CNC(=O)C1CCN(C(=O)[C@H]2C=C[C@@H](NC3=NCCN3)C2)CC1)C(=O)O)OCc1ccccc1 [Compound 17, 3-[[[1-[[(1R,4S)-4-[(4,5-dihydro-1H-imidazol-2-yl)amino]-2-cyclopenten-1-yl]carbonyl]-4-piperidinyl]carbonyl]amino]-N-[(phenylmethoxy)carbonyl]-L-alanine] | 380 | 5.4
31 | O=C(N[C@@H](CNC(=O)C1CCN(C(=O)CC(CNC2=NCCN2)c2ccc(Cl)cc2)CC1)C(=O)O)OCc1ccccc1 (stereo partly drawn) [Compound 18] | 50 | 15
32 | O=C(O)C[C@H](NC(=O)C1CCN(C(=O)CC2(CNC3=NCCN3)CCCCC2)CC1)c1ccc(Cl)nc1 [Compound 19] | 320 | 71
33 | O=C(O)CC(NC(=O)C1CCN(C(=O)CCCNC2=NCCN2)CC1)c1ccsc1 (stereo not drawn) [Compound 20] | 530 | 4900
34 | O=C(O)CC(NC(=O)C1CCN(C(=O)CCCNC2=NCCN2)CC1)c1ccc2c(c1)OCO2 (stereo not drawn) [Compound 21] | 23 | 410
35 | Cc1cccc(C(CC(=O)O)NC(=O)C2CCN(C(=O)CCCNC3=NCCN3)CC2)c1 (stereo not drawn) [Compound 22] | > 500 | 38000
36 | O=C(O)CC(NC(=O)C1CCN(C(=O)CCCNC2=NCCN2)CC1)c1ccc2c(c1)CCO2 (stereo not drawn) [Compound 23] | > 500 | 7300
37 | COc1cc(OC)cc(C(CC(=O)O)NC(=O)C2CCN(C(=O)CCCNC3=NCCN3)CC2)c1 (stereo not drawn) [Compound 24] | 64 | 2200
38 | O=C(O)CC(NC(=O)C1CCN(C(=O)CCCNC2=NCCN2)CC1)c1cccnc1 (stereo not drawn) [Compound 25] | 32 | 2900
39 | O=C(O)CC(NC(=O)C1CCN(C(=O)CCCNC2=NCCN2)CC1)c1cc(Cl)cc(Cl)c1 (stereo not drawn) [Compound 26] | 120 | 1800

From patent US7718673B2, “Isonipecotamides for the treatment of integrin-mediated disorders” (Ortho-McNeil Pharmaceutical, Inc., priority 1999, dated 2010)
